Measured values taken from the supplement of paper PMC5579334.
± gives the standard deviation of the averaged measurements.

Columns and labels:
[1] = tested on: HS-PSS; test: drug sensitivity score (DSS, CellTox-Green cytotoxicity, 72 h) (DSS (dimensionless)); higher = more cytotoxic; extreme values may be limits of the assay
In short: (§1)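 MPNST cell lines and primary human Schwann cells were incubated 72 h at 37 °C in 384-well plates holding five 10-fold compound dilutions. CellTox-Green was added before seeding at a final 1:1000 dilution and reported fluorescence from DNA released by disrupted cells. Signals were scaled to vehicle and positive-control wells, and cultures failing plate quality control were dropped. Drug sensitivity score and relative IC50 come from four-parameter logistic fits, with IC50 censored at the top concentration.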

[2] = tested on: S1507-2; test: as above
In short: as §1

[3] = tested on: ST8814; test: as above
In short: as §1

[4] = tested on: STS26T; test: as above
In short: as §1

[5] = tested on: HSC2 (primary human Schwann cells); test: as above
In short: as §1

[6] = tested on: HSC1 (primary human Schwann cells); test: as above
In short: as §1

[7] = tested on: HS-PSS; test: % inhibition of CellTiter-Glo viability at highest tested concentration (72 h), relative to DMSO and benzethonium chloride controls; higher = more inhibition
In short: (§2)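 Viability was scored by CellTiter-Glo ATP luminescence, scaled from vehicle to positive-control wells, with duplicates averaged where present. The cells, MPNST lines and primary human Schwann cells at 750–1000 per well, sat 72 h at 37 °C, 5% CO2, in 384-well plates preprinted with each compound at five concentrations in 10-fold steps. Four-parameter logistic fits were run on the data. These fits give drug sensitivity score and relative IC50 censored at the top concentration, and percent inhibition is reported at the top concentration.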

[8] = tested on: S1507-2; test: as above
In short: as §2

[9] = tested on: ST8814; test: as above
In short: as §2

[10] = tested on: HS-Sch-2; test: as above
In short: as §2

[11] = tested on: STS26T; test: as above
In short: as §2

[12] = tested on: HSC2 (primary human Schwann cells); test: as above
In short: as §2

[13] = tested on: YST-1; test: as above
In short: as §2

[14] = tested on: S462; test: as above
In short: as §2

[15] = tested on: HSC1 (primary human Schwann cells); test: as above
In short: as §2

[16] = tested on: HS-PSS; test: drug sensitivity score (DSS, CellTiter-Glo viability, 72 h) (DSS (dimensionless)); higher = more sensitive; extreme values may be limits of the assay
In short: as §2

[17] = tested on: S1507-2; test: as above
In short: as §2

[18] = tested on: ST8814; test: as above
In short: as §2

[19] = tested on: HS-Sch-2; test: as above
In short: as §2

[20] = tested on: STS26T; test: as above
In short: as §2

[21] = tested on: HSC2 (primary human Schwann cells); test: as above
In short: as §2

[22] = tested on: YST-1; test: as above
In short: as §2

[23] = tested on: S462; test: as above
In short: as §2

[24] = tested on: HSC1 (primary human Schwann cells); test: as above
In short: as §2

Row | Compound | drug sensitivity score [1] | drug sensitivity score [2] | drug sensitivity score [3] | drug sensitivity score [4] | drug sensitivity score [5] | drug sensitivity score [6] | % inhibition [7] [%] | % inhibition [8] [%] | % inhibition [9] [%] | % inhibition [10] [%] | % inhibition [11] [%] | % inhibition [12] [%] | % inhibition [13] [%] | % inhibition [14] [%] | % inhibition [15] [%] | drug sensitivity score [16] | drug sensitivity score [17] | drug sensitivity score [18] | drug sensitivity score [19] | drug sensitivity score [20] | drug sensitivity score [21] | drug sensitivity score [22] | drug sensitivity score [23] | drug sensitivity score [24]
1 | O=C1CN2Cc3c(ccc(Cl)c3Cl)N=C2N1 [Anagrelide] (max concentration tested 10000 nM) | 0 | 0 | 0 | 0 | 0.367 | 0 | 4.14 | -1.32 ± 1.6 | 17.3 | 38.7 | 1.1 | 51.1 | 2.83 | -5.96 ± 0.63 | 17.3 | 0 | 0 | 0.934 | 8.23 | 0 | 11.1 | 0 | 0 | 1.41
2 | COc1ccc(S(=O)(=O)Nc2cccnc2Nc2ccc(O)cc2)cc1 [ABT-751] (max concentration tested 10000 nM) | 0 | 11.9 ± 0.12 | 13.5 | 19 | 12.9 | 7.1 | 69 | 79.7 ± 4.9 | 86 | 87.8 | 94.9 | 86 | 83.1 | 96.52 ± 0.26 | 76.6 | 3.98 | 14 ± 0.54 | 15.1 | 14.3 | 16.3 | 13.5 | 10.8 | 16.8 ± 0.83 | 12.3
3 | CN[C@@H]1C[C@H]2O[C@@](C)([C@@H]1OC)n1c3ccccc3c3c4c(c5c6ccccc6n2c5c31)C(=O)N[C@H]4O [UCN-01] (max concentration tested 10000 nM) | 6.62 | 15.35 ± 0.12 | 13.8 | 29.4 | 21.7 | 15.9 | 100 | 105 ± 1.4 | 105 | 102 | 104 | 103 | 89.8 | 105.6 ± 0.5 | 102 | 22.1 | 32.23 ± 0.17 | 27.3 | 26.7 | 27.9 | 30.9 | 21.8 | 31.03 ± 0.038 | 27.8
4 | CN1CCN(c2nc(C3=C(c4c[nH]c5ccccc45)C(=O)NC3=O)c3ccccc3n2)CC1 [Sotrastaurin] (max concentration tested 10000 nM) | 0 | 0 | 0 | 0 | 0 | 0 | 3.47 | 6.26 ± 6.6 | 7.08 | 5.75 | -3.71 | -36.1 | 17.7 | 11.8 ± 2 | -32.7 | 0 | 0.00765 ± 0.011 | 0.337 | 0 | 0 | 0 | 0.45 | 0.0588 ± 0.083 | 0
5 | Cc1ccc(F)c(NC(=O)Nc2ccc(-c3cccc4[nH]nc(N)c34)cc2)c1 [Linifanib] (max concentration tested 1000 nM) | 0 | 0 | 0 | 0 | 0 | 0 | 9.61 | 10 ± 8.1 | 10.9 | 1.61 | 5.78 | 11.5 | 6.46 | 14.7 ± 3.3 | -2.2 | 0 | 0.308 ± 0.44 | 0 | 0 | 0 | 0.0016 | 0 | 0.159 ± 0.18 | 0
6 | CC(=O)Nc1cccc(-n2c(=O)n(C3CC3)c(=O)c3c(Nc4ccc(I)cc4F)n(C)c(=O)c(C)c32)c1 [Trametinib] (max concentration tested 250 nM) | 0.89 | 4.3 ± 0.49 | 6.34 | 0 | 0.138 | 0 | 46.4 | 76.9 ± 1.3 | 96.7 | 53.5 | 48.4 | 66.4 | 4.55 | 85.67 ± 0.21 | 64.5 | 5.07 | 10.4 ± 0.064 | 12.8 | 4.27 | 7.88 | 8.12 | 0 | 13.48 ± 0.13 | 9.86
7 | O=C(O)CCCc1ccc(N(CCCl)CCCl)cc1 [Chlorambucil] (max concentration tested 10000 nM) | 0 | 0 | 0 | 0 | 0 | 0 | 3.62 | -14.4 ± 0.28 | -14.6 | 1.59 | -3.28 | 21.9 | 18.1 | -2.04 ± 1.9 | 24.7 | 0 | 0 | 0 | 0 | 0 | 0.471 | 0.78 | 0 | 0.621
8 | CNC(=O)c1cccc(-c2ccc3c(N4CCOC[C@@H]4C)nc(N4CCOC[C@@H]4C)nc3n2)c1 [AZD2014] (max concentration tested 10000 nM) | 0 | 0 | 0 | 0 | 0 | 0 | 69.8 | 75.49 ± 0.4 | 78.5 | 71 | 75.4 | 87.1 | 79.2 | 66.2 ± 1.5 | 87.4 | 10.4 | 12.6 ± 1 | 10.7 | 11.7 | 12 | 15 | 17.9 | 11.1 ± 0.51 | 15.2
9 | CC1(C)CNc2cc(NC(=O)c3cccnc3NCc3ccncc3)ccc21 [Motesanib] (max concentration tested 10000 nM) | 0 | 0.104 ± 0.15 | 0 | 0 | 0 | 0 | 5.39 | 6.17 ± 1.9 | -4.55 | 7.18 | 4.89 | 15.5 | 15 | 4.64 ± 6.4 | 9.4 | 0 | 0 | 0 | 0 | 0 | 0.232 | 0.25 | 0 | 0
10 | O=[N+]([O-])c1ccc2c(c1)S(=O)(=O)C=C2 [Stattic] (max concentration tested 50000 nM) | 12.8 | 5.93 ± 1.3 | 7.96 | 12 | 9.26 | 15.6 | 101 | 95.7 ± 1.3 | 94.6 | 100 | 95.6 | 98.3 | 101 | 96.03 ± 0.43 | 98.5 | 18.7 | 7.88 ± 2.4 | 14.9 | 18.6 | 13.7 | 13.9 | 17.4 | 11.3 ± 3.2 | 16.8
11 | COc1nc(N)nc2c1ncn2[C@@H]1O[C@H](CO)[C@@H](O)[C@@H]1O [Nelarabine] (max concentration tested 10000 nM) | 0 | 3.71 ± 5.2 | 0 | 0 | 0.0142 | 0 | -6.14 | 7.84 ± 7.8 | -1.03 | 6.44 | 6.48 | 4.25 | -10.9 | 8.35 ± 0.2 | 1.53 | 0 | 1.62 ± 2.3 | 0 | 0 | 0 | 0 | 0 | 0 | 0
12 | CO[C@@]12[C@H](COC(N)=O)C3=C(C(=O)C(C)=C(N)C3=O)N1C[C@@H]1N[C@@H]12 [Mitomycin C] (max concentration tested 10000 nM) | 0 | 2.38 ± 3 | 5.46 | 1.57 | 2.91 | 2.29 | 16.2 | 69.5 ± 1.9 | 77.4 | 28.5 | 50.2 | 51.3 | 55.7 | 68.5 ± 1.9 | 52.1 | 0.31 | 3.18 ± 0.05 | 3.61 | 0.9 | 2.31 | 2.34 | 4.11 | 3.23 ± 0.21 | 2.63
13 | CNCc1ccc(-c2[nH]c3cc(F)cc4c3c2CCNC4=O)cc1 [Rucaparib] (max concentration tested 10000 nM) | 0 | 3.1 ± 4.4 | 0 | 0 | 0 | 0 | 30.1 | -0.362 ± 7.1 | 4.21 | 22.2 | 4.71 | 8.78 | 60.9 | 27.7 ± 9 | 4.91 | 2.72 | 0 | 0 | 1.1 | 0 | 0 | 8.59 | 2.11 ± 0.82 | 0
14 | O=C1NC(=O)[C@@H](c2cn3c4c(cccc24)CCC3)[C@@H]1c1c[nH]c2ccccc12 [Tivantinib] (max concentration tested 1000 nM) | 0.01 | 4.49 ± 1.2 | 4.59 | 7.73 | 2.53 | 1.43 | 36.1 | 80 ± 5.9 | 93 | 82.9 | 98.2 | 60.3 | 78.2 | 98.43 ± 0.21 | 62.9 | 2.27 | 5.33 ± 1.5 | 5 | 6 | 6.92 | 4.03 | 6.48 | 5.15 ± 0.31 | 3.89
